Patent US20110123490A1, “HE[…] COMPOUNDS” (priority 2009, published 2011)

Legend:
[1] = target: T1, HCV polymerase (NS5B570n-Con1) (Hepatitis C virus genotype 1b, UniProt Q9WMX2); experiment: HCV NS5B RNA polymerase activity assay (incorporation of radiolabeled nucleotide into RNA); assay type: biochemical, HCV Con1 strain
T1 construct: contains a 21 amino acid deletion at the C-terminus relative to the full-length HCV polymerase; 6-histidine (N); made in house; host or cells: E. coli BL21(DE) pLysS, plasmid pET17b
Experimental: The enzymatic activity of HCV polymerase (NS5B570n-Con1) was measured as the incorporation of radiolabeled nucleotide monophosphates into acid insoluble RNA products. Unincorporated radiolabeled substrate was removed by filtration and scintillant was added to the washed and dried filter plate containing radiolabeled RNA product. The amount of RNA product generated by NS5B570-Con1 at the end of the reaction was directly proportional to the amount of light emitted by the scintillant.
The N-terminal 6-histidine tagged HCV polymerase, derived from HCV Con1 strain, genotype 1b (NS5B570n-Con1) contains a 21 amino acid deletion at the C-terminus relative to the full-length HCV polymerase and was purified from E. coli strain BL21(DE) pLysS. The construct, containing the coding sequence of HCV NS5B Con1 (GenBank accession number AJ242654) was inserted into the plasmid construct pET17b, downstream of a T7 promoter expression cassette and transformed into E. coli. A single colony was grown overnight as a starter culture and later used inoculate 10 L of LB media supplemented with 100 μg/mL ampicillin at 37° C. Protein expression was induced by the addition of 0.25 mM isopropyl-β-D-thiogalactopyranoside (IPTG) when optical density at […] of the culture was between 0.6 and 0.8 and cells were harvested after 16 to 18 h at 30° C. NS5B570n-Con1 was purified to homogeneity using a three-step protocol including subsequent column chromatography on Ni-NTA, SP-Sepharose HP and Superdex 75 resins.
Each 50 μL enzymatic reaction contained 20 nM RNA template derived from the complementary sequence of the Internal Ribosome Entry Site (cIRES), 20 nM NS5B570n-Con1 enzyme, 0.5 μCi of tritiated UTP (Perkin Elmer catalog no. TRK-412; specific activity: 30 to 60 Ci/mmol; stock solution concentration from 7.5×10^−5 M to 20.6×10^−6 M), 1 μM each ATP, CTP, and GTP, 40 mM Tris-HCl pH 8.0, 40 mM NaCl, 4 mM DTT (dithiothreitol), 4 mM MgCl2, and 5 μL of compound serial diluted in DMSO. Reaction mixtures were assembled in 96-well filter plates (cat #MADVN0B, Millipore Co.) and incubated for 2 h at 30° C. Reactions were stopped by addition of 10% final (v/v) trichloroacetic acid and incubated for 40 min at 4° C. […]
The amount of light emitted from the scintillant was converted to counts per minute (CPM) on a Topcount® plate reader (Perkin-Elmer, Energy Range: Low, Efficiency Mode Normal, Count Time: 1 min, Background Subtract: none, Cross talk reduction: Off).
Data was analyzed in Excel® (Microsoft®) and ActivityBase® (Idbs®). […] All data was expressed as a percentage of the positive control. […]

in vitro = settings: human
[2] = test system: HCV replicon cells (2209-23), genotype 1b replicon in Huh7 cells; experiment: HCV replicon assay (Renilla luciferase reporter); assay type: cell-based, HCV genotype 1b; settings: Hepatitis C virus, Huh-7, 72 h; 2209-23 cells, three days incubation, luciferase readout

Row | SMILES | IC50 [1] | CC50 (in vitro) | IC50 [2]
1 | CC1(C)COc2c(-n3ccc(=O)[nH]c3=O)cc(-c3ccc4cc(NS(C)(=O)=O)ccc4c3)cc21 [Compound I-1, N-{6-[7-(2,4-Dioxo-3,4-dihydro-2H-pyrimidin-1-yl)-3,3-dimethyl-2,3-dihydro-benzofuran-5-yl]-naphthalen-2-yl}-methanesulfonamide] | 0.5 nM |  | 
2 | COc1c(-c2ccc3cc(NS(C)(=O)=O)ccc3c2)cc(-n2ccc(=O)[nH]c2=O)c2c1C(C)(C)CO2 [Compound I-2, N-{6-[7-(2,4-Dioxo-3,4-dihydro-2H-pyrimidin-1-yl)-4-methoxy-3,3-dimethyl-2,3-dihydro-benzofuran-5-yl]-naphthalen-2-yl}-methanesulfonamide] | 0.6 nM | 12000 nM | 5.2 nM
3 | COc1c(-c2ccc3cc(NS(C)(=O)=O)ccc3c2)cc(N2CCC(=O)NC2=O)c2c1C(C)(C)CO2 [Compound I-3, N-{6-[7-(2,4-Dioxo-tetrahydro-pyrimidin-1-yl)-4-methoxy-3,3-dimethyl-2,3-dihydro-benzofuran-5-yl]-naphthalen-2-yl}-methanesulfonamide] | 4.7 nM |  | 
4 | CC1(C)COc2c(-c3ccc4cc(NS(C)(=O)=O)ccc4c3)cc(-n3ccc(=O)[nH]c3=O)cc21 [Compound I-4, N-{6-[5-(2,4-Dioxo-3,4-dihydro-2H-pyrimidin-1-yl)-3,3-dimethyl-2,3-dihydro-benzofuran-7-yl]-naphthalen-2-yl}-methanesulfonamide] | 0.9 nM | 2700 nM | 106 nM
